# Active and inactive are the calls of the source.
# What was measured:
# [1] = inhibitors of intracellular T. cruzi replication, confirmation, NIH3T3 host cells, beta-gal luminescence (AID 2044); format: functional, cell-based;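 note: intracellular parasites grown in NIH/3T3 mouse fibroblasts as host cells; luminescent beta-galactosidase reporter signal from transgenic T. cruzi replicating inside host cells; inhibitors lower the luminescence signal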
# [2] = test system: INS1; experiment: beta cell apoptosis inhibitors, cytokine rescue, dose response, luminescence, retest (AID 449756); format: functional, cell-based; conditions: Rattus norvegicus;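 note: cell death triggered by IL-1 beta plus TNF-alpha plus IFN-gamma mixture; protective hits raise ATP signal compared with cytokine alone wells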
# [3] = cytotoxicity toward NIH3T3 fibroblasts, dose response, counter-screen, cell-based, ATP luminescence, mouse fibroblasts (AID 2010); format: functional;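 note: cells exposed to compound for about 90 hours before reading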
# [4] = test system: HEK293; experiment: inhibitors of LMP1-driven NF-kB reporter, dose response, cell-based, HEK293, luciferase, cherry-pick (AID 588343); format: functional; conditions: Homo sapiens
# [5] = test system: H9c2; experiment: cells; format: functional, cell-based; conditions: Rattus norvegicus, H9c2, Myocardium;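 note: confirmatory concentration-response retest of ultra-high-throughput screening hits for modulation of myocardial damage; cell death induced by hydrogen peroxide oxidative stress; compound pretreatment for 60 min then peroxide exposure for 2 h; potency is for protecting the cells against peroxide damage rather than for killing them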
# [6] = biological target: Cytochrome P450 3A4 (Homo sapiens, UniProt P08684);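 note: CYP3A4 tested as one member of a cytochrome P450 panel screen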
# [7] = biological target: Cytochrome P450 2C19 (Homo sapiens, UniProt P33261); experiment: Cytochrome panel assay with activity outcomes. Panel member name: p450-cyp2c19 Compounds with AC50 equal or less than 10 uM are considered active; format: functional
# [8] = biological target: T1, Cytochrome P450 1A2 (Homo sapiens, UniProt P05177);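 note: PubChem cytochrome P450 panel assay, CYP1A2 panel member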
# T1 sequence (P05177 whole entry): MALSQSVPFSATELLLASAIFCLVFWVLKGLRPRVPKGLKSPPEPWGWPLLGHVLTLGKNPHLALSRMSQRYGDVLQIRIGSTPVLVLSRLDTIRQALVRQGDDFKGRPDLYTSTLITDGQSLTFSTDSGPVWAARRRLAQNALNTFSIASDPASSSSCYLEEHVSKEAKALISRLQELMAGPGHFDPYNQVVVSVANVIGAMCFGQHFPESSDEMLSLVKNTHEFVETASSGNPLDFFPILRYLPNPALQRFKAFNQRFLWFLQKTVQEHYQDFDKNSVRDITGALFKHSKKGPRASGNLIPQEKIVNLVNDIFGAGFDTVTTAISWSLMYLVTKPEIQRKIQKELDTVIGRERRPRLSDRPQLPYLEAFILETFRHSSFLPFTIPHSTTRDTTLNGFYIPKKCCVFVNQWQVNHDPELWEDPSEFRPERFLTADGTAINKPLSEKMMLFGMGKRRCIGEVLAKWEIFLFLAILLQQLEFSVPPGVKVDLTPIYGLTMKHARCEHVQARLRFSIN
# [9] = biological target: Cytochrome P450 2C9 (Homo sapiens, UniProt P11712)
# [10] = test system: BJ; experiment: cytotoxicity toward BJ-TERT-LT-ST fibroblasts, dose response, cell-based, RAS-independent, luminescence (AID 1935); format: functional; conditions: Homo sapiens;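 note: BJ fibroblasts immortalized with TERT plus LT and ST oncogenes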
# [11] = cytotoxicity toward DRD oncogenic fibroblasts, dose response, cell-based, non-viral oncogenic, luminescence (AID 1934); format: functional; conditions: Homo sapiens
# [12] = test system: BJ; experiment: cells; format: functional, cell-based; conditions: Homo sapiens
# [13] = Luminescence Cell-Based Dose Confirmation HTS to Identify Inhibitors of Platelet Dense Granule Release. [Related pubchem assays: 1663 (Primary HTS), 1678 (Summary of Project)]; format: functional
# [14] = test system: BJ; experiment: cytotoxicity toward BJ-TERT fibroblasts, dose response, cell-based, RAS-independent, luminescence (AID 1933); format: functional; conditions: Homo sapiens
# [15] = biological target: Luciferin 4-monooxygenase (Photinus pyralis, UniProt P08659); experiment: firefly luciferase enzyme inhibitors, dose response, biochemical, luminescence (AID 1891)
# [16] = biological target: Cytochrome P450 2D6 (Homo sapiens, UniProt P10635);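 note: CYP2D6 member of a cytochrome P450 panel assay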
# [17] = Luminescence Cell-Based Dose Response to Identify Activators of 5'UTR Stem-Loop Driven Prion Protein mRNA Translation in H4-C Neuroglioblastoma Cells. [Related pubchem assays: 1829 (Project Summary), 1814 (Primary HTS)]; format: functional
# [18] = test system: H4; experiment: Luminescence Cell-Based Dose Response HTS to Identify Activators of 5'UTR Stem-Loop Driven Prion Protein mRNA Translation in H4 Neuroglioblastoma Cells. [Related pubchem assays: 1829 (Project Summary), 1814 (Primary HTS)]; format: functional; conditions: Homo sapiens
# [19] = biological target: T2, Fatty acid synthase (Homo sapiens, UniProt P49327); experiment: FAS thioesterase domain inhibitors, dose response, biochemical, kinetic fluorescence intensity (AID 624326); format: functional;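 note: rate of fluorescence rise from hydrolysis of a fluorogenic O-methyl fluorescein ester substrate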
# [20] = biological target: T3, Sentrin-specific protease 8 (Homo sapiens, UniProt Q96LD8); format: functional;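 note: luminescence read-out of SENP8 inhibition, dose-response confirmation following an ultra-high-throughput screen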
# T3 sequence (Q96LD8 whole entry): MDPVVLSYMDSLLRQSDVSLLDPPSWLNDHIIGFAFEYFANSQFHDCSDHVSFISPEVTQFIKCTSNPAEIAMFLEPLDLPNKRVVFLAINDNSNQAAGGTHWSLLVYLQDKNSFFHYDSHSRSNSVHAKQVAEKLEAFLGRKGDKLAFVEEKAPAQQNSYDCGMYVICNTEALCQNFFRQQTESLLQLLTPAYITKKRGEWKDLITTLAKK
# [21] = test system: Streptococcus sp. 'group A'; experiment: growth inhibition of control SK(-) GAS strain, dose response, counter-screen for streptokinase expression inhibitor project, luminescence, kanamycin, BacTiterGlo, confirmation (AID 1900); format: functional, organism-based
# [22] = biological target: T4, Sentrin-specific protease 6 (Homo sapiens, UniProt Q9GZR1); format: functional;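 note: Luminescence-based dose-response confirmatory assay of SENP6 inhibition, following up an ultra-high-throughput screen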
# T4 sequence (Q9GZR1 whole entry): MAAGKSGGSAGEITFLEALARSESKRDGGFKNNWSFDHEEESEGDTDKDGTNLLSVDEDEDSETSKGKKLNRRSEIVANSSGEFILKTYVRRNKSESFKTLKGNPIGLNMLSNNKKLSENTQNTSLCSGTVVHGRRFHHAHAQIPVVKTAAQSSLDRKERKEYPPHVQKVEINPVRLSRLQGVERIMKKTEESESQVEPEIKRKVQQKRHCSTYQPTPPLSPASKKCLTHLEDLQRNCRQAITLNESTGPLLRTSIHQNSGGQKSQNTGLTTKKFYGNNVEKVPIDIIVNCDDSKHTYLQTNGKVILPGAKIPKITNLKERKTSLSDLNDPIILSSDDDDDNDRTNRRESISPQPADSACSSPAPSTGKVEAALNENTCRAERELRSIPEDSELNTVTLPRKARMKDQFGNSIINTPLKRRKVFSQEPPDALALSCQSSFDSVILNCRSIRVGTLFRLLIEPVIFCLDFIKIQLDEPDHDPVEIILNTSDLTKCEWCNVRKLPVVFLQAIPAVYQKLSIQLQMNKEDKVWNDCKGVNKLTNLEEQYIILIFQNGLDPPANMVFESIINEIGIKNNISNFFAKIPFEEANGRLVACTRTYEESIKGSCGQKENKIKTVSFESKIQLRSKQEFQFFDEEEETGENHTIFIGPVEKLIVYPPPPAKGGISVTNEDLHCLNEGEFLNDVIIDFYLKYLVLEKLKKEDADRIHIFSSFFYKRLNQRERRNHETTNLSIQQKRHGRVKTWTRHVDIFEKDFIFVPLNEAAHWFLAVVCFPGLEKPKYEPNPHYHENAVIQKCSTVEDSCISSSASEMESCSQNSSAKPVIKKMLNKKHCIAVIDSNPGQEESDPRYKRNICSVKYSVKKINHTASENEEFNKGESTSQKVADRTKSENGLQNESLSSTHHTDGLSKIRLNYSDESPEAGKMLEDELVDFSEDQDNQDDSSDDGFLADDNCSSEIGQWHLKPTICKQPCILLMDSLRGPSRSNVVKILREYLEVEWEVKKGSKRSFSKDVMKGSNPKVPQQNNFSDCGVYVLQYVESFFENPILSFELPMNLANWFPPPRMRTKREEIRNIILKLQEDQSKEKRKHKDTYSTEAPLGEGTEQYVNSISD
# [23] = biological target: T5, Caspase-3 (Homo sapiens, UniProt P42574); format: functional;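 note: Dose-response selectivity test against caspase-3 for candidate inhibitors of sentrin-specific proteases (SENPs)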
# T5 sequence (P42574 whole entry): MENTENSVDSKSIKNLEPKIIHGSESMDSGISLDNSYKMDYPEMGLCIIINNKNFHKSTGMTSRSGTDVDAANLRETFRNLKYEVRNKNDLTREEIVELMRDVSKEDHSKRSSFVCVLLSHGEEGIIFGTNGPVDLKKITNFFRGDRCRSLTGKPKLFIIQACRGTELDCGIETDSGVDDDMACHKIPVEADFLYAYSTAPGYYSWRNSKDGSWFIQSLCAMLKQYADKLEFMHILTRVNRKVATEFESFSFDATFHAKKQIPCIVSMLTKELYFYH
# [24] = biological target: T6, Sentrin-specific protease 7 (Homo sapiens, UniProt Q9BQF6); format: functional;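 note: Luminescence-based dose-response confirmation of ultra-high-throughput screening hits, measuring inhibition of SENP7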
# T6 sequence (Q9BQF6 whole entry): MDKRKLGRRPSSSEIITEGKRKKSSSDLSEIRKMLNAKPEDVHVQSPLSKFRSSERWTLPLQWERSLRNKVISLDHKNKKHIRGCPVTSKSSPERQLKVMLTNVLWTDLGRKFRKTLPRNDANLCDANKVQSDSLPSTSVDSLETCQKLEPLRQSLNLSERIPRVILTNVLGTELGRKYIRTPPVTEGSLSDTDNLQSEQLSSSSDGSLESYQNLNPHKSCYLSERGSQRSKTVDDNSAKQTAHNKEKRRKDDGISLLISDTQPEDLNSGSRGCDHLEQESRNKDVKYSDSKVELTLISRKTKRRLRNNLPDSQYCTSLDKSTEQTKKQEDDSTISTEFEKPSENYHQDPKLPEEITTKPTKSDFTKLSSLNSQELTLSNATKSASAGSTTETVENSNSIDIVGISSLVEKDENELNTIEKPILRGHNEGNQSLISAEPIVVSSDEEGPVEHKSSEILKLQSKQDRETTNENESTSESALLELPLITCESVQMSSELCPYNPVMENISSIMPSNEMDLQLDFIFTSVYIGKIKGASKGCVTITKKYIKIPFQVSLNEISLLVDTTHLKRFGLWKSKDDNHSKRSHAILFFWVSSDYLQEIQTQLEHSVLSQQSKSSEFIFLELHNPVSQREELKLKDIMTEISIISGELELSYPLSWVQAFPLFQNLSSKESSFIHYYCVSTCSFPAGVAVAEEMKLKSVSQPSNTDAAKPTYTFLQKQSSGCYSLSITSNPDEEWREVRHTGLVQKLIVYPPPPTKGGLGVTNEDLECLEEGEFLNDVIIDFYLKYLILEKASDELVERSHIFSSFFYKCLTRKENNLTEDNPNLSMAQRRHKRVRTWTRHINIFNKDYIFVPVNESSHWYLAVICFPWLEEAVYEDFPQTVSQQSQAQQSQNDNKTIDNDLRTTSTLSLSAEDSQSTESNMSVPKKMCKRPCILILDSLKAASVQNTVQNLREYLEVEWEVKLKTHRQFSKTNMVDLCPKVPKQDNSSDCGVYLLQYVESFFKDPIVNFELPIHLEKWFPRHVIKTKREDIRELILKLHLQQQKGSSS
# [25] = biological target: T2, Fatty acid synthase; experiment: FAS thioesterase domain inhibitors, dose response, biochemical, endpoint fluorescence intensity, uHTS hits (AID 624327); format: functional;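 note: fluorescence from hydrolysis of an O-methyl fluorescein acyl ester substrate by the enzyme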
# [26] = Luminescence Cell-Based Dose Confirmation to Identify Activators of 5'UTR Stem-Loop Driven Alpha-Synuclein mRNA Translation in H4 Neuroglioblastoma Cells. [Related pubchem assays: 1829 (Project Summary), 1814 (Primary HTS)]; format: functional
# [27] = Luminescence Cell-Based Dose Response to Identify Activators of Luciferase Translation or Activity in H4-C Neuroglioblastoma Cells. [Related pubchem assays: 1829 (Project Summary), 1814 (Primary HTS)]; format: functional
# [28] = biological target: Induced myeloid leukemia cell differentiation protein Mcl-1 (Homo sapiens, UniProt Q07820); format: functional
# [29] = test system: Streptococcus; experiment: Group A Streptococcus viability loss, dose response, counter-screen for streptokinase expression inhibitor project, luminescence, BacTiterGlo (AID 1915); format: functional, organism-based;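 note: potency for reduction of bacterial viability or growth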
# Sequence of Cytochrome P450 2C9 (P11712 whole entry): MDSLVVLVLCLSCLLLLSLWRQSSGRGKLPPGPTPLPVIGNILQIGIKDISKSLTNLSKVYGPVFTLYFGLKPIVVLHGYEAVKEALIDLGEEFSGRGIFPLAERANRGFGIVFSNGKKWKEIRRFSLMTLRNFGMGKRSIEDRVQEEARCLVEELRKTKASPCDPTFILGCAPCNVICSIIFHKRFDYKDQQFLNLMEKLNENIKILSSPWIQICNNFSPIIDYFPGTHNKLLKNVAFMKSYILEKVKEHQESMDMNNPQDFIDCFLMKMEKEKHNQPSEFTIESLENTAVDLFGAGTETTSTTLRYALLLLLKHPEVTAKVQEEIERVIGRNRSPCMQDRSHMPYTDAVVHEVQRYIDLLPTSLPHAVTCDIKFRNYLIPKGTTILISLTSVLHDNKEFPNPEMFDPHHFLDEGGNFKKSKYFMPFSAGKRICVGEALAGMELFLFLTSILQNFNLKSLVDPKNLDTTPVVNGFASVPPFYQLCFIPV
# Sequence of Cytochrome P450 2C19 (P33261 whole entry): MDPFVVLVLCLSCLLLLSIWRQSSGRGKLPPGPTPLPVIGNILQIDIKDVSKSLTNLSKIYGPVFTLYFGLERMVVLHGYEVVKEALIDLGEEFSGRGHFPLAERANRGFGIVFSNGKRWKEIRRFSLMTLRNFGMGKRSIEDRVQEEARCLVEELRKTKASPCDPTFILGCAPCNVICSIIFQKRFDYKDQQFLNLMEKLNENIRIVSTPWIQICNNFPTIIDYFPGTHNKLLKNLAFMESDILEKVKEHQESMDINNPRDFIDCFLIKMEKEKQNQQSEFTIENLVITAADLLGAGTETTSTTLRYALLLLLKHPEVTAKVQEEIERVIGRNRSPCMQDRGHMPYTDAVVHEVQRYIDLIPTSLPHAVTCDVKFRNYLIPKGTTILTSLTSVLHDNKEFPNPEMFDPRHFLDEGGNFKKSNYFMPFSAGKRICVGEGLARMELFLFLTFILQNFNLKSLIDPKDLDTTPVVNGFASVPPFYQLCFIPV
# Sequence of Cytochrome P450 3A4 (P08684 whole entry): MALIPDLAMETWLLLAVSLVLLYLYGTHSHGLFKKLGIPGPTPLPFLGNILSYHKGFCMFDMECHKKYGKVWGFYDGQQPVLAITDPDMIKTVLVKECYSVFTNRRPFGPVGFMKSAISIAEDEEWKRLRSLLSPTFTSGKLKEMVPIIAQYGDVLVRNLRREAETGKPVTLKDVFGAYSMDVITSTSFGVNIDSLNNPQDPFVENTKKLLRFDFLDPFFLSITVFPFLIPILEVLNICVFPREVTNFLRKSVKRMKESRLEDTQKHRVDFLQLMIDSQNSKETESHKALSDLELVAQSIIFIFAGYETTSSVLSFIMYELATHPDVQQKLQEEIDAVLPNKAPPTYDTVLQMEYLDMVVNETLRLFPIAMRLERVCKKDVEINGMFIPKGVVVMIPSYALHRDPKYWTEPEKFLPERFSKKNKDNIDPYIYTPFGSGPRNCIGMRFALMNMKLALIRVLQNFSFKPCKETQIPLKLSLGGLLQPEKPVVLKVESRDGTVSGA
# T2 sequence (P49327 whole entry, the tested form may be a part): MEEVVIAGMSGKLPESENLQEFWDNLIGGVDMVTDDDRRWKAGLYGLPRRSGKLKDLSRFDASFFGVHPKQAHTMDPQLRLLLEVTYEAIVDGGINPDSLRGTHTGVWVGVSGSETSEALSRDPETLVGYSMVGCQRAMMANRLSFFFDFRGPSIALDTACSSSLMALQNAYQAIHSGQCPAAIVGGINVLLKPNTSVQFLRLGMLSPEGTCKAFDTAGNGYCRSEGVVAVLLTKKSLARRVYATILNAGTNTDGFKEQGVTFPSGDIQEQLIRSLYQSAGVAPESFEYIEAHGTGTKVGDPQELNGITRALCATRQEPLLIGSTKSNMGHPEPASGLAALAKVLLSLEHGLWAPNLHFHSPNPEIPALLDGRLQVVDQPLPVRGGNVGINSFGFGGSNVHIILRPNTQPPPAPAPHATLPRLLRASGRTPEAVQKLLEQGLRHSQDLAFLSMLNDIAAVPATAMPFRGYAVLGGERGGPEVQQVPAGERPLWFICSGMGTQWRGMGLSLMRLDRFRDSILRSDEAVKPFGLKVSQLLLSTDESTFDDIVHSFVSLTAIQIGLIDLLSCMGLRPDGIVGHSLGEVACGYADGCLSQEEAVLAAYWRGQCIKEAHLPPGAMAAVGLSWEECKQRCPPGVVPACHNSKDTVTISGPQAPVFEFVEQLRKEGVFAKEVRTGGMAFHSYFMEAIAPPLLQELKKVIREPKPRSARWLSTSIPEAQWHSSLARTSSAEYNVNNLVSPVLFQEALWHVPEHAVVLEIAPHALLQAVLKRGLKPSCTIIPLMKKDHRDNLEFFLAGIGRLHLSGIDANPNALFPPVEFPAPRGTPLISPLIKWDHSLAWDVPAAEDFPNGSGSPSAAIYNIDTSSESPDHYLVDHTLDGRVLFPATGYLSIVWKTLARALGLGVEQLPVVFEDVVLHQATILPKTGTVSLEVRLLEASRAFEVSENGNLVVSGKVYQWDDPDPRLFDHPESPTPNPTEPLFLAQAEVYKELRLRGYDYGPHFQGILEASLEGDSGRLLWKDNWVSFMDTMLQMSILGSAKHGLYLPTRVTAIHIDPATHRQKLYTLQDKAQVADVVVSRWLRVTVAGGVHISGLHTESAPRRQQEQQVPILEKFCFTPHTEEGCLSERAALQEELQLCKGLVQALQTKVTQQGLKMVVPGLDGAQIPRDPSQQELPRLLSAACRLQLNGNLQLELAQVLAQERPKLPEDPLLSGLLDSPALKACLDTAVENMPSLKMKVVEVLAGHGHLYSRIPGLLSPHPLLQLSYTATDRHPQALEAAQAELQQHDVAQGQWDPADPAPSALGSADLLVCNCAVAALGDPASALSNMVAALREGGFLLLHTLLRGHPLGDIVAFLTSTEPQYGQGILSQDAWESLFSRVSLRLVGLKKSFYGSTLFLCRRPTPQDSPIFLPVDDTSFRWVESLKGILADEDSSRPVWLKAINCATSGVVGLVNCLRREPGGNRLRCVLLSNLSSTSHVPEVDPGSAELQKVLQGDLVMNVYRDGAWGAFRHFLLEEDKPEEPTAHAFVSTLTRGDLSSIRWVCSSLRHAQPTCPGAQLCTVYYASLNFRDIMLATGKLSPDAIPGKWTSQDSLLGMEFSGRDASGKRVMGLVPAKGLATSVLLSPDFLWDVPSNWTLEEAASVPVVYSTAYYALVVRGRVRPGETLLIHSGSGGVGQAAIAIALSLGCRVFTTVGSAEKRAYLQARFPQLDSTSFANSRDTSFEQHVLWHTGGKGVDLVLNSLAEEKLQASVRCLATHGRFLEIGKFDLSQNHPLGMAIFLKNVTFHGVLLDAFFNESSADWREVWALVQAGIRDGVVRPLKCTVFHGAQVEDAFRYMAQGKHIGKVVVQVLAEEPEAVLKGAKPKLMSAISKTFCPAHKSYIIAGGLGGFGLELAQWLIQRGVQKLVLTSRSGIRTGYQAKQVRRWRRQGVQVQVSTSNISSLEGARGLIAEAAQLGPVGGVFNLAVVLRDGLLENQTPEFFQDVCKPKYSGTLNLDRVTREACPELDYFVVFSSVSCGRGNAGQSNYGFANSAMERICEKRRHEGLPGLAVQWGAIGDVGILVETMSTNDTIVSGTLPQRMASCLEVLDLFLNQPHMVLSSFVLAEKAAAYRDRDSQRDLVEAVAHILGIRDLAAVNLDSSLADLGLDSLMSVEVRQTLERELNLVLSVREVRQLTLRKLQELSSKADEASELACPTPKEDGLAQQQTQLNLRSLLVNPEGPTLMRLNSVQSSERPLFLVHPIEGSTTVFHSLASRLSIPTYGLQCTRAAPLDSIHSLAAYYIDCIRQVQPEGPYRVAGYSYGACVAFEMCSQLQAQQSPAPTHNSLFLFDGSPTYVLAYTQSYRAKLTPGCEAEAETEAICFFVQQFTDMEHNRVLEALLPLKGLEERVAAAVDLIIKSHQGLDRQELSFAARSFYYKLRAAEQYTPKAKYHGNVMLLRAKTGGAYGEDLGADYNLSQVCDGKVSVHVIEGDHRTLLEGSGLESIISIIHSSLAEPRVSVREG
# Sequence of Cytochrome P450 2D6 (P10635 whole entry): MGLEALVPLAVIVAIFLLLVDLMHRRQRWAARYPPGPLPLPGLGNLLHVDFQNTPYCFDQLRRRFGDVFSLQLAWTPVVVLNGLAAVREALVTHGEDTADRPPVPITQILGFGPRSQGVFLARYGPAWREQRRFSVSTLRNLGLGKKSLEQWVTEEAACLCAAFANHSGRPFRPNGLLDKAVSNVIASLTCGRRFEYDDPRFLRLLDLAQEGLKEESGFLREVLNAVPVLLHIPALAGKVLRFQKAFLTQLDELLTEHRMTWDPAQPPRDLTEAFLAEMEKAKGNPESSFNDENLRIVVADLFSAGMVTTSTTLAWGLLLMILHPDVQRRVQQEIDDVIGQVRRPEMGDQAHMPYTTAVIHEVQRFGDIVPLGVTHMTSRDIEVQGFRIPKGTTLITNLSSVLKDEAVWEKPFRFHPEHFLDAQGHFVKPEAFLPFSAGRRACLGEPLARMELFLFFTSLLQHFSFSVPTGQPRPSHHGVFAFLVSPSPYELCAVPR
# Sequence of Induced myeloid leukemia cell differentiation protein Mcl-1 (Q07820 whole entry): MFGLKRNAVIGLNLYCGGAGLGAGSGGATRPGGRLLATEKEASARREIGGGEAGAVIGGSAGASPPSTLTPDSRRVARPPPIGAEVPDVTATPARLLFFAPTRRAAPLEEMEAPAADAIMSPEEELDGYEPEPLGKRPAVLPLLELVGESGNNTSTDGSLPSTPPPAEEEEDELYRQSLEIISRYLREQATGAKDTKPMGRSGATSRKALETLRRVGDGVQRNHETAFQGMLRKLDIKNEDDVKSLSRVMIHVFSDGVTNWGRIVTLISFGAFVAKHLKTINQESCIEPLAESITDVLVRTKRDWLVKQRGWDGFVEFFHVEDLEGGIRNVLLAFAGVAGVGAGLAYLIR
structure (smiles),measurement,setting,value
Cc1nc2c(-c3ccc(Cl)cc3)c(C)nn2c(O)c1Cc1ccccc1,EC50,[1],0.938 µM (active)
same,AC50,[2],2.5 µM (active)
same,EC50,[3],2.97 µM (active)
same,AC50,[4],9.26 µM (active)
N#Cc1c(Oc2ccc3ccccc3c2)sc(C(=O)c2ccccc2)c1N,AC50,[4],26.7 µM (active)
COc1ccc(CSc2nc(O)c3ccccc3n2)cc1F,IC50,[5],> 79 µM (inactive)
O=C(CSC1=NNC(c2ccccn2)S1)Nc1cccc(Cl)c1 (configuration not stated),IC50,[5],> 79 µM (inactive)
CCc1ccccc1NC(=O)c1nnn(CC(=O)Nc2cccc(C)c2C)c1N,AC50,[6],7.08 µM (inconclusive)
same,AC50,[7]; read-out: AC50,2 µM (inconclusive)
same,AC50,[8],12.6 µM (inconclusive)
same,AC50,[9],inconclusive
C/C(CC(=O)NCc1ccco1)=N\NC(=O)Cc1cccc2ccccc12,AC50,[7]; read-out: AC50,25.1 µM (inconclusive)
same,AC50,[8],12.6 µM (inconclusive)
same,AC50,[9],inconclusive
O=C(Nc1ccc(N2CCOCC2)cc1)c1cn2ccccc2n1,EC50,[10],> 150 µM (inconclusive)
same,EC50,[11],12.1 µM (active)
same,EC50,[12],11.1 µM (active)
same,EC50,[13],3.25 µM (active)
same,EC50,[14],12.3 µM (active)
same,EC50,[15],4.45 µM (active)
same,AC50,[4],3.09 µM (active)
CCN(CC)CCOC(=O)c1cc(Cl)c(N)cc1OC,AC50,[6],31.6 µM (inconclusive)
same,AC50,[9],inconclusive
COc1ccc(N(C(=O)c2cccc([N+](=O)[O-])c2)S(=O)(=O)c2cccs2)cc1,IC50,[5],> 79 µM (inactive)
Cn1c(SCC(=O)N2CCN(S(=O)(=O)c3ccccc3)CC2)nc2ccccc21,AC50,[16],14.1 µM (inconclusive)
same,AC50,[9],inconclusive
O=C(Nc1ncc(Cc2cccc(Cl)c2)s1)C1=NCCN1,AC50,[7],inconclusive
same,AC50,[8],31.6 µM (inconclusive)
same,AC50,[9],inconclusive
O=C(O)c1ccc(N/N=C/c2ccc(-c3cc(Cl)ccc3Cl)o2)cc1,EC50,[17],0.384 µM (active)
same,EC50,[18],< 0.1 µM (active)
same,IC50,[19],4.39 µM (active)
same,IC50,[20],> 100 µM (inactive)
same,EC50,[21],2.44 µM (active)
same,IC50,[22],> 100 µM (inactive)
same,IC50,[23],> 100 µM (inactive)
same,IC50,[24],> 100 µM (inactive)
same,IC50,[25],3.61 µM (active)
same,EC50,[26],0.121 µM (active)
same,EC50,[27],0.482 µM (active)
same,IC50,[28],2.17 µM (active)
same,EC50,[29],2.61 µM (active)

# From ChEMBL document CHEMBL1201862, “PubChem BioAssay data set” (2004)
